# Assay results: ChEMBL document CHEMBL1201862, “PubChem BioAssay data set” (2004)
#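 Test compounds were applied to cells in 96-well plates for 48 hours at 5 doses. Abbreviation: GI50, concentration required for 50% inhibition of growth.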 Calls of active or inactive are those of the source. Cut-off read from the data, not from the text of the source: active = GI50 up to about 1.1 µM and inactive = higher.
# Tests used:
# Assay in all cases: growth of human tumour cells (NCI), 48 h
# SK-MEL-5 = system: SK-MEL-5
# TK-10 = system: TK-10
# M14 = system: M14
# UACC-257 = system: UACC-257
# CAKI-1 = system: CAKI-1
# SK-MEL-28 = system: SK-MEL-28
# OVCAR-3 = system: OVCAR-3
# HOP-62 = system: HOP-62
# DMS-273 = system: DMS-273
# SF-539 = system: SF-539
# SNB-78 = system: SNB-78
# NCI-H23 = system: NCI-H23
# ACHN = system: ACHN
# A498 = system: A498
# MOLT-4 = system: MOLT-4
# HCC 2998 = system: HCC 2998
# UACC-62 = system: UACC-62
# NCI-H522 = system: NCI-H522
# OVCAR-8 = system: OVCAR-8
# SK-OV-3 = system: SK-OV-3
# SF-295 = system: SF-295
# EKVX = system: EKVX
# HT-29 = system: HT-29
# HCT-15 = system: HCT-15
# RXF 393 = system: RXF 393
# K562 = system: K562
# U-251 = system: U-251
# DLD-1 = system: DLD-1
# SNB-19 = system: SNB-19
# CCRF-CEM = system: CCRF-CEM
# OVCAR-5 = system: OVCAR-5
# SNB-75 = system: SNB-75
# UO-31 = system: UO-31
# SW-620 = system: SW-620
# LXFL 529 = system: LXFL 529
# SF-268 = system: SF-268
# LOX IMVI = system: LOX IMVI
# A549 = system: A549
# SK-MEL-2 = system: SK-MEL-2
# SN12C = system: SN12C
# M19-MEL = system: M19-MEL
# IGROV-1 = system: IGROV-1
# NCI-H226 = system: NCI-H226
# COLO 205 = system: COLO 205
# XF498 = system: XF498
# HL-60 = system: HL-60
# HOP-18 = system: HOP-18
# 786-0 = system: 786-0
# RPMI-8226 = system: RPMI-8226
# KM12 = system: KM12
# Malme-3M = system: Malme-3M
# OVCAR-4 = system: OVCAR-4
# HCT-116 = system: HCT-116
# SR = system: SR
# DMS-114 = system: DMS-114
# KM-20L2 = system: KM-20L2
# NCI-H460 = system: NCI-H460
# HOP-92 = system: HOP-92
smiles,measurement,setting,value
O=c1sc(-c2nc3ccccc3[nH]2)c(/N=C/c2ccccc2)n1-c1ccccc1,GI50,SK-MEL-5,29.9 µM (inactive)
same,GI50,TK-10,62.8 µM (inactive)
same,GI50,M14,48.9 µM (inactive)
same,GI50,UACC-257,> 100 µM (inactive)
same,GI50,CAKI-1,> 100 µM (inactive)
same,GI50,SK-MEL-28,> 100 µM (inactive)
same,GI50,OVCAR-3,25.6 µM (inactive)
same,GI50,HOP-62,27.9 µM (inactive)
same,GI50,DMS-273,28.4 µM (inactive)
same,GI50,SF-539,26.3 µM (inactive)
same,GI50,SNB-78,35.5 µM (inactive)
same,GI50,NCI-H23,> 100 µM (inactive)
same,GI50,ACHN,65.2 µM (inactive)
same,GI50,A498,> 100 µM (inactive)
same,GI50,MOLT-4,> 100 µM (inactive)
same,GI50,HCC 2998,> 100 µM (inactive)
same,GI50,UACC-62,52.5 µM (inactive)
same,GI50,NCI-H522,90.2 µM (inactive)
same,GI50,OVCAR-8,35.6 µM (inactive)
same,GI50,SK-OV-3,42.6 µM (inactive)
same,GI50,SF-295,40.9 µM (inactive)
same,GI50,EKVX,> 100 µM (inactive)
same,GI50,HT-29,> 100 µM (inactive)
same,GI50,HCT-15,74.1 µM
same,GI50,RXF 393,62.4 µM (inactive)
same,GI50,K562,75 µM (inactive)
same,GI50,U-251,68.7 µM (inactive)
same,GI50,DLD-1,> 100 µM (inactive)
same,GI50,SNB-19,53.7 µM (inactive)
same,GI50,CCRF-CEM,> 100 µM (inactive)
same,GI50,OVCAR-5,> 100 µM (inactive)
same,GI50,SNB-75,21.6 µM (inactive)
same,GI50,UO-31,> 100 µM (inactive)
same,GI50,SW-620,> 100 µM (inactive)
same,GI50,LXFL 529,30.3 µM (inactive)
same,GI50,SF-268,91.4 µM (inactive)
same,GI50,LOX IMVI,40.3 µM (inactive)
same,GI50,A549,57.4 µM (inactive)
same,GI50,SK-MEL-2,63 µM (inactive)
same,GI50,SN12C,73.3 µM (inactive)
same,GI50,M19-MEL,94.2 µM (inactive)
same,GI50,IGROV-1,97.7 µM (inactive)
same,GI50,NCI-H226,15.4 µM (inactive)
same,GI50,COLO 205,56.4 µM (inactive)
same,GI50,XF498,31.2 µM (inactive)
same,GI50,HL-60,> 100 µM (inactive)
same,GI50,HOP-18,67 µM (inactive)
same,GI50,786-0,42.9 µM (inactive)
same,GI50,RPMI-8226,> 100 µM (inactive)
same,GI50,KM12,73.3 µM (inactive)
same,GI50,Malme-3M,92.7 µM (inactive)
same,GI50,OVCAR-4,6.12 µM (inactive)
C=CCC(N(C)C(=O)[C@H](Cc1ccccc1)NC(=O)OCc1ccccc1)P(=O)(Oc1ccccc1)Oc1ccccc1 (some centres not stated),GI50,TK-10,> 100 µM (inactive)
same,GI50,M14,> 100 µM (inactive)
same,GI50,HCT-116,5.9 µM (inactive)
same,GI50,UACC-257,> 100 µM (inactive)
same,GI50,SK-MEL-28,> 100 µM (inactive)
same,GI50,OVCAR-3,> 100 µM (inactive)
same,GI50,HOP-62,> 100 µM (inactive)
same,GI50,DMS-273,> 100 µM (inactive)
same,GI50,SF-539,> 100 µM (inactive)
same,GI50,SNB-78,> 100 µM (inactive)
same,GI50,NCI-H23,> 100 µM (inactive)
same,GI50,SR,6.37 µM (inactive)
same,GI50,ACHN,6.5 µM (inactive)
same,GI50,MOLT-4,2.77 µM (inactive)
same,GI50,HCC 2998,> 100 µM (inactive)
same,GI50,UACC-62,> 100 µM (inactive)
same,GI50,NCI-H522,> 100 µM (inactive)
same,GI50,OVCAR-8,> 100 µM (inactive)
same,GI50,SK-OV-3,> 100 µM (inactive)
same,GI50,SF-295,> 100 µM (inactive)
same,GI50,DMS-114,5.62 µM (inactive)
same,GI50,EKVX,> 100 µM (inactive)
same,GI50,HT-29,> 100 µM (inactive)
same,GI50,RXF 393,> 100 µM (inactive)
same,GI50,K562,9.2 µM (inactive)
same,GI50,U-251,> 100 µM (inactive)
same,GI50,DLD-1,> 100 µM (inactive)
same,GI50,SNB-19,> 100 µM (inactive)
same,GI50,CCRF-CEM,8.51 µM (inactive)
same,GI50,SNB-75,80.5 µM (inactive)
same,GI50,UO-31,5.5 µM (inactive)
same,GI50,SW-620,> 100 µM (inactive)
same,GI50,LXFL 529,6.79 µM (inactive)
same,GI50,SF-268,> 100 µM (inactive)
same,GI50,LOX IMVI,> 100 µM (inactive)
same,GI50,A549,5.81 µM (inactive)
same,GI50,SK-MEL-2,> 100 µM (inactive)
same,GI50,SN12C,> 100 µM (inactive)
same,GI50,M19-MEL,> 100 µM (inactive)
same,GI50,IGROV-1,> 100 µM (inactive)
same,GI50,NCI-H226,> 100 µM (inactive)
same,GI50,COLO 205,8.43 µM (inactive)
same,GI50,KM-20L2,> 100 µM (inactive)
same,GI50,NCI-H460,6.1 µM (inactive)
same,GI50,XF498,> 100 µM (inactive)
same,GI50,HL-60,12.8 µM (inactive)
same,GI50,786-0,> 100 µM (inactive)
same,GI50,RPMI-8226,6.81 µM (inactive)
same,GI50,KM12,> 100 µM (inactive)
same,GI50,HOP-92,29 µM (inactive)
same,GI50,Malme-3M,> 100 µM (inactive)
COc1ccc(CNc2cnc3ccc(N)cc3n2)cc1OC,GI50,SK-MEL-5,> 100 µM (inactive)
same,GI50,TK-10,64.6 µM (inactive)
same,GI50,M14,> 100 µM (inactive)
same,GI50,HCT-116,53.8 µM (inactive)
same,GI50,UACC-257,> 100 µM (inactive)
same,GI50,CAKI-1,> 100 µM (inactive)
same,GI50,SK-MEL-28,67 µM (inactive)
same,GI50,OVCAR-3,> 100 µM (inactive)
same,GI50,HOP-62,> 10 µM (inactive)
same,GI50,DMS-273,41.3 µM (inactive)
same,GI50,SF-539,> 100 µM (inactive)
same,GI50,SNB-78,> 100 µM (inactive)
same,GI50,NCI-H23,> 100 µM (inactive)
same,GI50,SR,> 100 µM (inactive)
same,GI50,ACHN,> 100 µM (inactive)
same,GI50,MOLT-4,> 100 µM (inactive)
same,GI50,HCC 2998,> 100 µM (inactive)
same,GI50,NCI-H522,> 100 µM (inactive)
same,GI50,OVCAR-8,> 100 µM (inactive)
same,GI50,SF-295,> 100 µM (inactive)
same,GI50,DMS-114,47.3 µM (inactive)
same,GI50,EKVX,> 100 µM (inactive)
same,GI50,HT-29,> 100 µM (inactive)
same,GI50,HCT-15,> 100 µM
same,GI50,K562,> 100 µM (inactive)
same,GI50,DLD-1,> 100 µM (inactive)
same,GI50,SNB-19,> 100 µM (inactive)
same,GI50,CCRF-CEM,> 100 µM (inactive)
same,GI50,OVCAR-5,> 100 µM (inactive)
same,GI50,SNB-75,66.7 µM (inactive)
same,GI50,UO-31,79.6 µM (inactive)
same,GI50,SW-620,> 100 µM (inactive)
same,GI50,SF-268,> 100 µM (inactive)
same,GI50,LOX IMVI,> 100 µM (inactive)
same,GI50,A549,> 100 µM (inactive)
same,GI50,SK-MEL-2,> 100 µM (inactive)
same,GI50,SN12C,> 100 µM (inactive)
same,GI50,M19-MEL,64.3 µM (inactive)
same,GI50,NCI-H226,> 100 µM (inactive)
same,GI50,COLO 205,60 µM (inactive)
same,GI50,NCI-H460,> 100 µM (inactive)
same,GI50,XF498,> 100 µM (inactive)
same,GI50,HL-60,> 100 µM (inactive)
same,GI50,HOP-18,0.548 µM (active)
same,GI50,786-0,> 100 µM (inactive)
same,GI50,RPMI-8226,> 100 µM (inactive)
same,GI50,KM12,> 100 µM (inactive)
same,GI50,Malme-3M,> 100 µM (inactive)
same,GI50,OVCAR-4,> 100 µM (inactive)
